Measured values as given in patent publication US11186566B2, “Modulator of cystic fibrosis transmembrane conductance regulator, pharmaceutical compositions, methods of treatment, and process for making the modulator” (Vertex Pharmaceuticals Incorporated, priority 2016, dated 2021).
Entries after “also recorded” stand apart in the source; their conditions may differ. Like-named read-outs stand apart in the source and are kept apart here.

How the values were obtained:
[1] = target: T1, F508del-CFTR (Homo sapiens (Human), UniProt P13569, DEL508-508); experiment: Membrane potential optical (fluorescent voltage sensing dye, FLIPR III) HTS assay for F508del-CFTR modulators; assay type: cell-based
Outline: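 NIH3T3 mouse fibroblasts stably expressing F508del-CFTR were seeded on matrigel-coated plates for 18–24 h at 37 °C. For correction assays they were cultured with or without compound for that period. Membrane potential was read on FLIPR III with voltage-sensing dyes, using a pH 7.4 NaCl/HEPES bath and a chloride-free gluconate substitute solution.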

[2] = Rat IV and PO PK studies; assay type: in vivo, male Sprague-Dawley rats; details: male, Sprague-Dawley, plasma; for bioavailability / AUC: 3 mg/kg, oral; for bioavailability: read-out: Rat po % F; for clearance: intravenous, 3.0 mg/kg, read-out: Rat iv CL
Procedure: 5C. Experimental Protocol for Rat IV and PO PK Studies
[…] […] Analyses of plasma and dose preparations were performed using LC/MS/MS.
Plasma concentration-time profiles of the tested compound in Sprague-Dawley rats at scheduled (nominal) sampling times were analyzed by noncompartmental pharmacokinetic methods using PK function within Watson LIMS software, Version 7.4.2 (Thermo Scientific Inc, Waltham, Mass.). AUC values were calculated using the linear trapezoidal rule.

[3] = target: human PXR (Homo sapiens (Human), UniProt O75469); experiment: PXR assay (PXR mediated CYP3A4 induction, DPX-2 cell line); assay type: cell-based; details: DPX-2 cells, 48 hours, 0.1 to 60 μM
Procedure: 5D. Experimental Protocol for PXR Assay
The propensity for PXR mediated CYP3A4 induction is assessed using the DPX-2 cell line in vitro. This cell line, which has been licensed from Puracyp Inc. was derived from HepG2 cells and has been stably transfected with genes encoding human PXR as well as a modified luciferase reporter linked to the CYP3A4 promoter region and related distal and proximal enhancers.
The assay is run in 384 well format and each test article is administered in 11 doses ranging from 0.1 to 60 μM. On day 1, DPX-2 cells which have previously been expanded in-house and cryopreserved are thawed and seeded in tissue culture plates. The following day, media is changed and cells are cultured in media containing test article, vehicle control or the positive control compound, the clinically validated CYP3A4 inducer rifampicin. Cells are cultured in the presence of test article for 48 hours and then cell viability is assessed using fluorescence based assay (Cell Titer-Fluor, Promega) with an EnVision Plate Reader (PerkinElmer). Subsequently, CYP3A4 transactivation, which is proportional to luciferase activity, is measured by reading luminescense using the Promega One-Glo reagent system using the same plate reader.
Data processing within the Genedata software package allows reporting of max fold induction compared to vehicle control, an EC50 value for CYP3A4 inducers and an 11 point-dose response curve.

[4] = target: T1, F508del-CFTR; experiment: Ussing chamber chloride transport experiments in HBE cells; assay type: cell-based
Procedure: Ussing chamber experiments were performed on polarized airway epithelial cells expressing F508del to further characterize the F508del modulators identified in the optical assays. Non-CF and CF airway epithelia were isolated from bronchial tissue, cultured as previously described (Galietta, L. J. V., Lantero, S., Gazzolo, A., Sacco, O., Romano, L., Rossi, G. A., & Zegarra-Moran, O. (1998) In Vitro Cell. Dev. Biol. 34, 478-481), and plated onto Costar® Snapwell™ filters that were precoated with NIH3T3-conditioned media. After four days the apical media was removed and the cells were grown at an air liquid interface for >14 days prior to use. […] CF-HBE were isolated from patients homozygous for […] or compound heterozygous for F508del with an different disease causing mutation on the other allele.
HBE grown on Costar® Snapwell™ cell culture inserts were mounted in an Ussing chamber (Physiologic Instruments, Inc., San Diego, Calif.), and the transepithelial resistance and short-circuit current in the presence of a basolateral to apical Cl^− gradient (ISC) were measured using a voltage-clamp system (Department of Bioengineering, University of Iowa, Iowa). Briefly, HBE were examined under voltage-clamp recording conditions (Vhold=0 mV) at 37° C. The basolateral solution contained (in mM) 145 NaCl, 0.83 K2HPO4, 3.3 KH2PO4, 1.2 MgCl2, 1.2 CaCl2, 10 Glucose, 10 HEPES (pH adjusted to 7.35 with NaOH) and the apical solution contained (in mM) 145 NaGluconate, 1.2 MgCl2, 1.2 CaCl2, 10 glucose, 10 HEPES (pH adjusted to 7.35 with NaOH).
Typical protocol utilized a basolateral to apical membrane Cl^− concentration gradient. To set up this gradient, normal ringers was used on the basolateral membrane, whereas apical NaCl was replaced by equimolar sodium gluconate (titrated to pH 7.4 with NaOH) to give a large Cl^− concentration gradient across the epithelium. Modulators were added either to the basolateral side […] to assay or to the apical side during the assay. Forskolin (10 μM) was added to the apical side during the assay to stimulate CFTR-mediated Cl^− transport. […]

[5] = target: T1, F508del-CFTR; experiment: F508del-CFTR processing and trafficking in vitro (170 to 180 kDa band); assay type: cell-based; details: for increase in steady-state levels, fold of untreated levels: F508del/F508del-HBE cells, 16 to 24 hours
Excerpt: The CFTR protein delivered to the cell surface by Compound 1 alone or in combination with Compound II (Compound I/Compound II) was potentiated by Compound III.

[6] = Metabolism of Compound 1 in vitro and in vivo
Procedure: Compound 1 and the metabolites shown in the following table were prepared and tested.

[7] = target: Human Serum Albumin (HSA) (Homo sapiens (Human), UniProt P02768); experiment: Chromatographic determination of Human Serum Albumin (HSA) binding; assay type: in vitro ADME; details: ChiralPak HSA column, retention time converted to % HSA
Procedure: 5B. Chromatographic Determination of Human Serum Albumin (HSA) Assay
Chromatographic determination of Human Serum Albumin (HSA) values was performed on a UPLC-MS system using a ChiralPak® HSA column (p/n: 58469AST) from Sigma Aldrich. Mobile phase A consisted of 50 mM ammonium acetate buffer in water adjusted to pH=7.4, and mobile phase B was 2-propanol. The column compartment was kept at constant temperature of 30° C. Determination of retention time on the HSA column was performed by injecting […] of 0.5 mM of compound (in DMSO) using a linear gradient from 0%-30% B in 2.5 minutes, followed by a hold at 30% B for 2 minutes, and the final equilibration step from […] in 1.5 minutes, for a total run time of 6 minutes. Flow rate was kept constant throughout the gradient and set to 1.8 mL/min. Compound retention time on the HSA column was converted to % HSA values according to a previously published protocol (Valko, et. al, 2003) correlating column retention times to standard plasma protein binding (PPB) values obtained from dialysis experiments. HSA data for certain compounds are summarized below in Table 8 below.
Valko, K., Nunhuck, S., Bevan, C., Abraham, M. H., Reynolds, D. P. Fast Gradient HPLC Method to Determine Compounds Binding to Human Serum Albumin. Relationships with Octanol/Water and Immobilized Artificial Membrane Lipophilicity. J. of Pharm. Sci. 2003, 92, 2236-2248.

[8] = F508del NIH 3T3 cells, assay 5A-A1, read-out: CFTRdF508 EC50
[9] = Table 9, read-out: CFTR dF508 EC50
[10] = Ussing Chamber, F508del/F508del-HBE cells

T1 sequence (P13569 other isoform, or with tags, fused parts or gaps del F508-F508): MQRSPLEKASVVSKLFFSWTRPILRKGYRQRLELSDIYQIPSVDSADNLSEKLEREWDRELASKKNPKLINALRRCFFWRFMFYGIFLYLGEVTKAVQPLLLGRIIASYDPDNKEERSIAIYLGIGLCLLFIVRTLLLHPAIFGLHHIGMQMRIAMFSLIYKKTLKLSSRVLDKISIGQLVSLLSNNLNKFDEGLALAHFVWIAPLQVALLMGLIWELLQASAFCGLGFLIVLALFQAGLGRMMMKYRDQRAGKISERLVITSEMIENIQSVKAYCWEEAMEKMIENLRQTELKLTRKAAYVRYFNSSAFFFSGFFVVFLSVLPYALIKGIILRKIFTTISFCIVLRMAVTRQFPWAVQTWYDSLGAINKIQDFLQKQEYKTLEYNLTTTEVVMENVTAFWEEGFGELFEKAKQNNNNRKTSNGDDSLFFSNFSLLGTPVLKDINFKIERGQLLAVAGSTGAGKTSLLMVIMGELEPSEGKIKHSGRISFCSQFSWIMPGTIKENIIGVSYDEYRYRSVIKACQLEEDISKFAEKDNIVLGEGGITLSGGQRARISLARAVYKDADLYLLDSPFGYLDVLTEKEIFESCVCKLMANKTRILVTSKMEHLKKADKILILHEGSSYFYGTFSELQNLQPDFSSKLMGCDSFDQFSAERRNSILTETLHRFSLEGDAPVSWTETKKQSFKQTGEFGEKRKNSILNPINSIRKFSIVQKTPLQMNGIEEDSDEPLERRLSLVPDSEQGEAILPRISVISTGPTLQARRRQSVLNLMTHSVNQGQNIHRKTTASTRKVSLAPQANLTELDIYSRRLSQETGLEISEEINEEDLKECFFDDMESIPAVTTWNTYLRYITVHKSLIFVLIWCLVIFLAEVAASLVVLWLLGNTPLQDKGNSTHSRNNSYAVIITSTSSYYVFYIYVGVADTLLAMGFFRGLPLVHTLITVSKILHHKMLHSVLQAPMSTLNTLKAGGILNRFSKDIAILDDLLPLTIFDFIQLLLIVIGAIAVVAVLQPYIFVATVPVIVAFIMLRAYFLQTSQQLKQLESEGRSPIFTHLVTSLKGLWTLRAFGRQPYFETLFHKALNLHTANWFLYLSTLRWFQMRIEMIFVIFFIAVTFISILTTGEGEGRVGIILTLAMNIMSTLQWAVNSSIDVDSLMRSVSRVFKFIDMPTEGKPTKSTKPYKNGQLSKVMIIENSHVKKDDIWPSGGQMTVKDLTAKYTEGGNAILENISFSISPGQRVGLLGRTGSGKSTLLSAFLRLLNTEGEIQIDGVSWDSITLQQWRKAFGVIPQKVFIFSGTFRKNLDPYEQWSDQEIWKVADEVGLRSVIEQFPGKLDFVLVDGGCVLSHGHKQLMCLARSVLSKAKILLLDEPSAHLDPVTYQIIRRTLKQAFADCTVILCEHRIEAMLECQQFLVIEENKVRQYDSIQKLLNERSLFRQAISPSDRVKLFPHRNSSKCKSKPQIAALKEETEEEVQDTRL
Sequence of human PXR (O75469 whole entry): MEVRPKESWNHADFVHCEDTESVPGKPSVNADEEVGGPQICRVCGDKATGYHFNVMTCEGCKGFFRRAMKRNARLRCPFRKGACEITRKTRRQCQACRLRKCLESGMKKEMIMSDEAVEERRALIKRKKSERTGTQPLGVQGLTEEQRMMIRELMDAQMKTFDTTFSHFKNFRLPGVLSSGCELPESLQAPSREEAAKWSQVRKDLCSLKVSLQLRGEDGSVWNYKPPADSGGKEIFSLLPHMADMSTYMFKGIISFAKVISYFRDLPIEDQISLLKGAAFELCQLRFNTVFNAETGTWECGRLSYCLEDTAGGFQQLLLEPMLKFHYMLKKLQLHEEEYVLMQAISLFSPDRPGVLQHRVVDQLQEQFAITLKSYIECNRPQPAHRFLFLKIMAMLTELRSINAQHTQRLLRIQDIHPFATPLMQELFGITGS
Sequence of Human Serum Albumin (HSA) (P02768 25-609): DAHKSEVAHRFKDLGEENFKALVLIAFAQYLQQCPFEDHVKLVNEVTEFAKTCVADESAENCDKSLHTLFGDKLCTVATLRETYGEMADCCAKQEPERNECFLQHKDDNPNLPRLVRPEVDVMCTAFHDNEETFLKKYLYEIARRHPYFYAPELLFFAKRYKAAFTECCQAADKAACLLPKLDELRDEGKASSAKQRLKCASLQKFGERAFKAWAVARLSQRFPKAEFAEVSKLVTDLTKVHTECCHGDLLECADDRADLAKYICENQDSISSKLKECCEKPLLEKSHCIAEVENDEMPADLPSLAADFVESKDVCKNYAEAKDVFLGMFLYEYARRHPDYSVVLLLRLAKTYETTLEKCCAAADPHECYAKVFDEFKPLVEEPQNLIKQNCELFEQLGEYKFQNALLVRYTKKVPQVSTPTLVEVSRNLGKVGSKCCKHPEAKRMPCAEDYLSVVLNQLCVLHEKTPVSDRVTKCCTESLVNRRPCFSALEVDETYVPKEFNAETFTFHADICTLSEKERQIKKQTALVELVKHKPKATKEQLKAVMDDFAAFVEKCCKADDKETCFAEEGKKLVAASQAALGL

SMILES | EC50 [1, 8] [nM] | EC50 [1, 9] [nM] | bioavailability [2] [%] | clearance [2] [mL/min/kg] | AUC [2] [ng·h/mL] | PXR Max Induction (% of rifampicin) [3] | HSA binding [7] [%] | other results
C[C@@H]1CN(c2nc(-n3ccc(OCCC4(C(F)(F)F)CC4)n3)ccc2C(=O)NS(=O)(=O)c2ccccc2)C(C)(C)C1 [Compound 1, N-(benzenesulfonyl)-6-[3-[2-[1-(trifluoromethyl)cyclopropyl]ethoxy]pyrazol-1-yl]-2-[(4S)-2,2,4-trimethylpyrrolidin-1-yl]pyridine-3-carboxamide] | < 100 | 30 | 63 | 1.6 | 21000 | 3 % of rifampicin | – | EC50 ([1]; F508del NIH 3T3 cells, assay 5A-A1, read-out: EC50): < 3000 nM; Emax ([1]; NIH3T3, F508del NIH 3T3 cells, relative to Compound II, read-out: % Efficacy relative to Compound II): ≥ 100%; EC50 ([1]; Table 7, Compound 1 and metabolites, read-out: CFTRdF508 EC50): 30 nM; chloride transport [4, 10]: enhanced chloride transport; effect on chloride transport in relation to the effect of Compound II [4, 10]: additive to the effect of Compound II; increase in steady-state levels, fold of untreated levels [5]: 6.5 fold; increase in steady-state levels, fold of untreated levels ([5]; Compound 1 in combination with 3 μM Compound II): 18.7 fold; processing and trafficking of F508del-CFTR ([5]; in vitro): improved the processing and trafficking of F508del-CFTR; also recorded: facilitates the processing and trafficking of F508del-CFTR; metabolism [6]: metabolized both in vitro and in vivo, mostly by oxidative metabolism
C[C@@H]1CN(c2nc(-n3ccc(OCC4(C(F)(F)F)CC4)n3)ccc2C(=O)NS(=N)(=O)c2ccccc2)C(C)(C)C1 (single isomer, unassigned) [drawing 339] | – | – | – | – | – | – | 97.9 | –
C[C@@H]1CN(c2nc(-n3ccc(OCC4C(C)(C)C4(C)C)n3)ccc2C(=O)NS(=O)(=O)c2cccc(F)c2)C(C)(C)C1 [Compound 16, N-(3-Fluorophenyl)sulfonyl-6-[3-[(2,2,3,3-tetramethylcyclopropyl)methoxy]pyrazol-1-yl]-2-[(4S)-2,2,4-trimethylpyrrolidin-1-yl]pyridine-3-carboxamide] | < 100 | 20 | 12 | 24.8 | 250 | 2 % of rifampicin | – | –
C[C@@H]1CN(c2nc(-n3ccc(OCC4C(C)(C)C4(C)C)n3)ccc2C(=O)NS(=O)(=O)c2ccccc2)C(C)(C)C1 [Comp. 30, N-(Benzenesulfonyl)-6-[3-[(2,2,3,3-tetramethylcyclopropyl)methoxy]pyrazol-1-yl]-2-[(4S)-2,2,4-trimethylpyrrolidin-1-yl]pyridine-3-carboxamide] | < 100 | 90 | 26 | 6.1 | 2300 | 0 % of rifampicin | – | –
CC(C)(C)c1cc(C(C)(C)C)c(NC(=O)c2c[nH]c3ccccc3c2=O)cc1O [Compound III, N-(5-hydroxy-2,4-di-tert-butyl-phenyl)-4-oxo-1H-quinoline-3-carboxamide, reference compound] | – | – | – | – | – | – | – | potentiation of F508del-CFTR delivered to the cell surface by Compound I alone or in combination with Compound II ([4]; HBE cells): potentiated

Further lines, with some results ahead:

EC50 [1, 8] [nM] | EC50 [1, 9] [nM] | bioavailability [2] [%] | clearance [2] [mL/min/kg] | AUC [2] [ng·h/mL] | PXR Max Induction (% of rifampicin) [3] | HSA binding [7] [%] | SMILES | other results
– | – | – | – | – | – | 98.4 | C[C@@H]1CN(c2nc(-n3ccc(OCC4(C(F)(F)F)CC4)n3)ccc2C(=O)NS(=N)(=O)c2ccccc2)C(C)(C)C1 (single isomer, unassigned) [drawing 340] | –
– | – | – | – | – | – | 99.1 | C[C@@H]1CN(c2nc(-n3ccc(OCC4(C(F)(F)F)CC4)n3)ccc2C(=O)NS(=O)(=O)c2ccccc2)C(C)(C)C1 [drawing 337] | –
< 100 | 70 | 98 | 2.6 | 20000 | 9 % of rifampicin | – | Cc1ccc(S(=O)(=O)NC(=O)c2ccc(-n3ccc(OCC4(C(F)(F)F)CC4)n3)nc2N2C[C@@H](C)CC2(C)C)cc1 [Compound 24, N-(p-Tolylsulfonyl)-6-[3-[[1-(trifluoromethyl)cyclopropyl]methoxy]pyrazol-1-yl]-2-[(4S)-2,2,4-trimethylpyrrolidin-1-yl]pyridine-3-carboxamide] | –
100 to 1000 | 270 | 100 | 3.6 | 20300 | 8 % of rifampicin | – | C[C@@H]1CN(c2nc(-n3ccc(OCC4(C(F)(F)F)CC4)n3)ccc2C(=O)NS(=O)(=O)c2ccc(C#N)cc2)C(C)(C)C1 [Comp. 27, N-(4-Cyanophenyl)sulfonyl-6-[3-[[1-(trifluoromethyl)cyclopropyl]methoxy]pyrazol-1-yl]-2-[(4S)-2,2,4-trimethylpyrrolidin-1-yl]pyridine-3-carboxamide] | –
– | – | – | – | – | – | 98.1 | C[C@@H]1CN(c2nc(-n3ccc(OCC4(C(F)(F)F)CC4)n3)ccc2C(=O)NS(=N)(=O)c2ccccc2)C(C)(C)C1 (mixture of isomers) | –
< 100 | 50 | 100 | 5.2 | 10500 | 17 % of rifampicin | – | C[C@@H]1CN(c2nc(-n3ccc(OCC4(C(F)(F)F)CC4)n3)ccc2C(=O)NS(=O)(=O)c2cccc(F)c2)C(C)(C)C1 [Comp. 51, N-(3-Fluorophenyl)sulfonyl-6-[3-[[1-(trifluoromethyl)cyclopropyl]methoxy]pyrazol-1-yl]-2-[(4S)-2,2,4-trimethylpyrrolidin-1-yl]pyridine-3-carboxamide] | –
